In patent US20240299385A1 (ReWind Therapeutics NV, priority 2021, published 2024):

The compounds below were run against T1, human GPR17 receptor (Homo sapiens, UniProt Q13304) (assay: Calcium mobilization functional assay (Fluo-8, FLIPR TETRA) in HEK-293 hGPR17 (Gα-q assay)). Settings: antagonism of MDL29,951 (~EC80) induced Ca2+ signal; cell line (HEK-293 hGPR17 or HEK-293 Suchi5 hGPR17) not given.
T1 construct: host or cells: HEK-293
T1 sequence (Q13304 whole entry): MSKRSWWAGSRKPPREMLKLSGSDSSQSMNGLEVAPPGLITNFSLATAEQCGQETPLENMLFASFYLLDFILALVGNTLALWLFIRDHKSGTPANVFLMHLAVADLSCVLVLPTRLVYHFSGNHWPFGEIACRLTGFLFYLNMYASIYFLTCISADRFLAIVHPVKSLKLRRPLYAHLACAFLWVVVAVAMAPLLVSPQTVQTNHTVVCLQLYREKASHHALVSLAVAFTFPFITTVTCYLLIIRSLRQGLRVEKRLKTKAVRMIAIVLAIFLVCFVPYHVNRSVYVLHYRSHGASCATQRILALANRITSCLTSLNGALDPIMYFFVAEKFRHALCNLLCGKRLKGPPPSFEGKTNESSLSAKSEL
Type: cell-based
Method in brief: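 Fluo-8-loaded HEK-293 hGPR17 cells (60 min dye loading, room temperature) were preincubated with compound for twenty minutes, then challenged with agonist MDL29,951 at ~EC80, 500 nM. Intracellular calcium release via Gα-q was recorded as FLIPR fluorescence for a further 2 minutes; compounds tested in duplicate.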
`O=S(=O)(Nc1cc(F)c(C(F)(F)F)cc1F)c1c[nH]cc1Cc1ccccc1` [Cpd 158, 4-benzyl-N-[2,5-difluoro-4-(trifluoromethyl)phenyl]-1H-pyrrole-3-sulfonamide] was tested, and the IC50 was 0.5 to 5 µM. In the case of `O=S(=O)(Nc1ccc(F)cc1F)c1c[nH]c(-c2ncccc2F)c1` [Cpd 160, N-(2,4-difluorophenyl)-5-(3-fluoro-2-pyridyl)-1H-pyrrole-3-sulfonamide], the IC50 is reported as 5 to 50 µM. For `COc1cc(C#N)ccc1NS(=O)(=O)c1c[nH]cc1Cc1ccccc1` [Cpd 161, 4-benzyl-N-(4-cyano-2-methoxy-phenyl)-1H-pyrrole-3-sulfonamide], the IC50 was 5 to 50 µM. Work on `N#Cc1ccc(NS(=O)(=O)c2c[nH]cc2Cc2ccccc2)cc1` [Cpd 162, 4-benzyl-N-(4-cyanophenyl)-1H-pyrrole-3-sulfonamide] yielded an IC50 of 0.5 to 5 µM. With `O=S(=O)(Nc1ccccc1F)c1c[nH]cc1Cc1ccccc1` [Cpd 163, 4-benzyl-N-(2-fluorophenyl)-1H-pyrrole-3-sulfonamide] the IC50 was 5 to 50 µM. With `O=S(=O)(Nc1ncc(Cl)cc1F)c1c[nH]c(-c2ccccn2)c1` [Cpd 164, N-(5-chloro-3-fluoro-2-pyridyl)-5-(2-pyridyl)-1H-pyrrole-3-sulfonamide] the IC50 was 0.5 to 5 µM. With `COc1cc(CC#N)ccc1NS(=O)(=O)c1c[nH]c(-c2ccccc2)c1` [Cpd 165, N-[4-(cyanomethyl)-2-methoxy-phenyl]-5-phenyl-1H-pyrrole-3-sulfonamide] the IC50 was 0.5 to 5 µM. In the case of `N#Cc1cnc(NS(=O)(=O)c2c[nH]c(-c3ccccc3)c2)c(F)c1` [Cpd 166, N-(5-cyano-3-fluoro-2-pyridyl)-5-phenyl-1H-pyrrole-3-sulfonamide], the IC50 is reported as 0.5 to 5 µM. Compound `COc1cc(Br)cnc1NS(=O)(=O)c1c[nH]c(-c2ccccn2)c1` [Cpd 167, N-(5-bromo-3-methoxy-2-pyridyl)-5-(2-pyridyl)-1H-pyrrole-3-sulfonamide] has an IC50 of 0.5 to 5 µM. `O=S(=O)(Nc1ncc(Br)cc1F)c1c[nH]c(-c2ccccc2)c1` [Cpd 168, N-(5-bromo-3-fluoro-2-pyridyl)-5-phenyl-1H-pyrrole-3-sulfonamide] showed an IC50 of 0.5 to 5 µM. In the case of `N#CCc1cnc(NS(=O)(=O)c2c[nH]c(-c3ccccc3)c2)c(F)c1` [Cpd 169, N-[5-(cyanomethyl)-3-fluoro-2-pyridyl]-5-phenyl-1H-pyrrole-3-sulfonamide], the IC50 is reported as 5 to 50 µM. Work on `COc1cccnc1-c1cc(S(=O)(=O)Nc2cc(F)c(C(F)(F)F)cc2F)c[nH]1` [Cpd 170, N-[2,5-difluoro-4-(trifluoromethyl)phenyl]-5-(3-methoxy-2-pyridyl)-1H-pyrrole-3-sulfonamide] yielded an IC50 of 0.5 to 5 µM. `N#Cc1ccc(NS(=O)(=O)c2c[nH]cc2Cc2cccc(F)c2)c(F)c1` [Cpd 171, N-(4-cyano-2-fluoro-phenyl)-4-[(3-fluorophenyl)methyl]-1H-pyrrole-3-sulfonamide] was tested, and the IC50 was under 0.5 µM. Work on `Cc1cc(F)c(NS(=O)(=O)c2c[nH]c(-c3ccccn3)c2)cc1F` [Cpd 173, N-(2,5-difluoro-4-methyl-phenyl)-5-(2-pyridyl)-1H-pyrrole-3-sulfonamide] yielded an IC50 of under 0.5 µM. Compound `O=S(=O)(Nc1cc(F)c(-c2ccccc2)cc1F)c1c[nH]c(-c2ccccn2)c1` [Cpd 174, N-(2,5-difluoro-4-phenyl-phenyl)-5-(2-pyridyl)-1H-pyrrole-3-sulfonamide] has an IC50 of 5 to 50 µM. In the case of `COc1cc(C(F)(F)F)cnc1NS(=O)(=O)c1c[nH]c(-c2ccccc2)c1` [Cpd 175, N-[3-methoxy-5-(trifluoromethyl)-2-pyridyl]-5-phenyl-1H-pyrrole-3-sulfonamide], the IC50 is reported as 0.5 to 5 µM. With `O=S(=O)(Nc1ncc(C(F)(F)F)cc1F)c1c[nH]c(-c2ccccc2F)c1` [Cpd 176, 5-(2-fluorophenyl)-N-[3-fluoro-5-(trifluoromethyl)-2-pyridyl]-1H-pyrrole-3-sulfonamide] the IC50 was 0.5 to 5 µM. For `N#Cc1ccc(NS(=O)(=O)c2c[nH]cc2Cc2ccc(F)cc2)c(F)c1` [Cpd 177, N-(4-cyano-2-fluoro-phenyl)-4-[(4-fluorophenyl)methyl]-1H-pyrrole-3-sulfonamide], the IC50 was under 0.5 µM.
